pIC50: −log10 of the molar value.
Experiments:
[1] = from CC(C)[C@H](NC(=O)CC(Sc1ccccc1)[C@H](COC(=O)[C@@H](N)Cc1ccc(O[Si](C)(C)C(C)(C)C)cc1)NC(=O)OC(C)(C)C)C(=O)O; amide bond; FDPP; DMF; 6.97 mM; 20.0 °C; 8.0 h
Human Calpain 2/NS1 = biological target: T1, Human Calpain 2/NS1 (Homo sapiens, UniProt P17655); assay: Calpain continuous fluorescence (FRET) inhibition assay; type: biochemical; settings: Column B; SensoLyte 520 FRET substrate, pH 7.5, 25C
T1 sequence (P17655 1-700): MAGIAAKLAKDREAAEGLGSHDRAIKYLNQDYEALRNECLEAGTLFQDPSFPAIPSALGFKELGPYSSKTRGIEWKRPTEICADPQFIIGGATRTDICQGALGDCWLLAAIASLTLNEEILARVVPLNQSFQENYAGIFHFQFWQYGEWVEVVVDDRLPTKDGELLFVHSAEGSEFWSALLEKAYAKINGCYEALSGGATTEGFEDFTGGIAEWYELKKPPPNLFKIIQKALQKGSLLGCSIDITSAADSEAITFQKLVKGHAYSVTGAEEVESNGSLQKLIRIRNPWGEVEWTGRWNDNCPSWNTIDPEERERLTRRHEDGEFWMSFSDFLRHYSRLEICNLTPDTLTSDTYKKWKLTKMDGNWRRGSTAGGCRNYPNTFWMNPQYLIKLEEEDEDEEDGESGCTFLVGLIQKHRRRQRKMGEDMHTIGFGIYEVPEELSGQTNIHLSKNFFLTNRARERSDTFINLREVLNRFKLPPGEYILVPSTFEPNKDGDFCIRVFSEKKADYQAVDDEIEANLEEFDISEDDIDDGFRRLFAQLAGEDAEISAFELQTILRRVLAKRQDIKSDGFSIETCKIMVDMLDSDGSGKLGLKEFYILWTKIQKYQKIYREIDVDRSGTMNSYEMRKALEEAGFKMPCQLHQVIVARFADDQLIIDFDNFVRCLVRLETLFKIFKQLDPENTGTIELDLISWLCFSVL
T1 sequence (P04632 1-268 partner): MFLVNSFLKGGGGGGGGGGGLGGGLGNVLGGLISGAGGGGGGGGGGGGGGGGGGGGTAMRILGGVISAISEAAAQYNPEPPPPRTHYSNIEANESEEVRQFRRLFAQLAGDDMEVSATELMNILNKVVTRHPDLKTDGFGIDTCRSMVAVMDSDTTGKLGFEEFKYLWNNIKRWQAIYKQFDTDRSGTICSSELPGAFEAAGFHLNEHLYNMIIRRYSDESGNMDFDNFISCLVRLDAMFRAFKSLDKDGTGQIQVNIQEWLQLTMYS
Description: (§1) Calpain 1, 2, and 9 activity and inhibition thereof was assessed by means of a continuous fluorescence assay. The SensoLyte 520 Calpain substrate (Anaspec Inc.) was optimized for detecting calpain activity. This substrate contains an internally quenched 5-FAM/QXLTM 520 FRET pair. Calpains 1, 2, and 9 cleave the FRET substrate into two separate fragments resulting in an increase of 5-FAM fluorescence that is proportional to calpain activity
(§2) Assays were typically setup in black 384-well plates using automated liquid handling as follows. Calpain assay base buffer typically contains 50 mM Tris, pH 7.5, 100 mM NaCl and 1 mM DTT. Inhibitors were serially diluted in DMSO and used to setup 2× mixtures with calpains in the aforementioned buffer. After incubation at ambient temperature (25C), the reaction was initiated by adding a 2× mix of the fluorescent peptide substrate and CaCl2) (required for in-situ calpain activation) in the same buffer. Reaction progress curve data were typically collected for 10 min using excitation/emission wavelengths of 490 nm/520 nm on SpectraMax i3x or the FLIPR-Tetra plate readers (Molecular Devices Inc.). Reaction rates were calculated from progress curve slopes typically over 1-5 min. Dose response curves (rate vs. log inhibitor concentration) were typically fit to a 4-parameter logistic function to extract IC50 values.

Human Calpain 1/NS1 = biological target: T2, Human Calpain 1/NS1 (Homo sapiens, UniProt P07384); assay: as above; type: biochemical; settings: Column A; SensoLyte 520 FRET substrate, pH 7.5, 25C
T2 sequence (P07384 1-714): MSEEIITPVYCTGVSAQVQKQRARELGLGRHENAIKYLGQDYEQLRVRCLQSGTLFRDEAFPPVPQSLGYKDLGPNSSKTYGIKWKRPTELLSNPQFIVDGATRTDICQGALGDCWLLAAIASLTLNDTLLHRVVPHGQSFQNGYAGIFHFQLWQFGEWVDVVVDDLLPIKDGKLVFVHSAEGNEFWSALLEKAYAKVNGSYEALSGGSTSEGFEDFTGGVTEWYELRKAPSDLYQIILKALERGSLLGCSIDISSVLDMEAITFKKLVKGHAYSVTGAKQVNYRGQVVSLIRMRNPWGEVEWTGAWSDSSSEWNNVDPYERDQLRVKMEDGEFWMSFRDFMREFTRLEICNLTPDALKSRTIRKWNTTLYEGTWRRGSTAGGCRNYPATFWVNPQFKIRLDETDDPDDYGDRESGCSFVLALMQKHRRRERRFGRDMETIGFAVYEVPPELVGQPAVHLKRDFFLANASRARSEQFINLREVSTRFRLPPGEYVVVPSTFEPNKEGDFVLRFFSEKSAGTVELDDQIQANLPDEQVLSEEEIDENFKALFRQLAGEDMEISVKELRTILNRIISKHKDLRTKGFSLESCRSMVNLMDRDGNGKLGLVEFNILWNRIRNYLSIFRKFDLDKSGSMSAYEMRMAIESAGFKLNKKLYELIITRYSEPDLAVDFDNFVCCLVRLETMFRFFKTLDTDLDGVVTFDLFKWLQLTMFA
T2 sequence (P04632 1-268 partner): T1 sequence (P04632 1-268 partner)
Description: as §1, §2

Human Calpain 9/NS1 = biological target: T3, Human Calpain 9/NS1 (Homo sapiens, UniProt O14815); assay: as above; type: biochemical; settings: Column C; SensoLyte 520 FRET substrate, pH 7.5, 25C
T3 sequence (O14815 1-690): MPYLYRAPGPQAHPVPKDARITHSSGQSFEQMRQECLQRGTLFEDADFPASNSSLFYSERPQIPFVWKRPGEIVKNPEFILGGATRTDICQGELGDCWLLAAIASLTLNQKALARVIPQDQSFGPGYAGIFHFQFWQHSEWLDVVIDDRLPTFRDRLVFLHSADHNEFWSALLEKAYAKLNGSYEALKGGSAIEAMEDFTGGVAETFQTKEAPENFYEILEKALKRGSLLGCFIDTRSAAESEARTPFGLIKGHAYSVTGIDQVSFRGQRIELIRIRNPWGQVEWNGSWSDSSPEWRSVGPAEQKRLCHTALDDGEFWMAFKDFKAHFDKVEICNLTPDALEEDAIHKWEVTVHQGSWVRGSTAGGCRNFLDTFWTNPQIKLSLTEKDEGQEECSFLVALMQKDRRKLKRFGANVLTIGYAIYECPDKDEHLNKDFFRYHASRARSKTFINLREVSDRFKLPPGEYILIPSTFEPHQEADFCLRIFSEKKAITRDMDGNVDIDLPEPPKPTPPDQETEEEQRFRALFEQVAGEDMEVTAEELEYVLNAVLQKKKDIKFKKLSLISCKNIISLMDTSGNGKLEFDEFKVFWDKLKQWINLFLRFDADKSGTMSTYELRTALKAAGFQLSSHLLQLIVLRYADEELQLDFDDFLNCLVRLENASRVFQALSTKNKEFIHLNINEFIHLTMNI
T3 sequence (P04632 1-268 partner): T1 sequence (P04632 1-268 partner)
Description: as §1, §2

Human Cathepsin B = biological target: T4, Human Cathepsin B (Homo sapiens, UniProt P07858); assay: Cathepsin continuous fluorescence inhibition assay; type: biochemical; settings: Column D; enzyme 25 nM, substrate 1 uM, pH 5.0, 30 minutes pre-incubation with inhibitor
T4 construct: purchased
Description: (§3) Cathepsin activity and inhibition thereof was assessed by means of a continuous fluorescence assay. All assays were run in 384 well format and utilized peptide substrates that liberate fluorescence upon protease catalyzed cleavage. FLIPR plate readers (Molecular Devices Inc.) were used to monitor reactions and extract initial rates which were then fit (four parameter logistic function) to obtain IC50 values. All enzymes are human. All enzymes and reagents were obtained commercially and are summarized in Tables 1 and 2 below along with assay conditions.

Human Cathepsin L = biological target: T5, Human Cathepsin L (Homo sapiens, UniProt P07711); assay: Cathepsin continuous fluorescence inhibition assay; type: biochemical; settings: Column G; enzyme 0.025 nM, substrate 1 uM, pH 6.0, 30 minutes pre-incubation with inhibitor
T5 construct: purchased
T5 sequence (P07711 114-333): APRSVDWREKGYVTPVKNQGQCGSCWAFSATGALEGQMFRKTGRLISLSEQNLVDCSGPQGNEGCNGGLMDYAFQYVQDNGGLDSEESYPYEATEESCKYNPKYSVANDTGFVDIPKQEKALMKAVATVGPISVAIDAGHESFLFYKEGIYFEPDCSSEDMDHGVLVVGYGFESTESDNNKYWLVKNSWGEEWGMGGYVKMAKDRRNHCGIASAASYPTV
Description: as §3

Human Cathepsin K = biological target: T6, Human Cathepsin K (Homo sapiens, UniProt P43235); assay: Cathepsin continuous fluorescence inhibition assay; type: biochemical; settings: Column E; enzyme 10 nM, substrate 1 uM, pH 5.5, 30 minutes pre-incubation with inhibitor
T6 construct: purchased
T6 sequence (P43235 115-329): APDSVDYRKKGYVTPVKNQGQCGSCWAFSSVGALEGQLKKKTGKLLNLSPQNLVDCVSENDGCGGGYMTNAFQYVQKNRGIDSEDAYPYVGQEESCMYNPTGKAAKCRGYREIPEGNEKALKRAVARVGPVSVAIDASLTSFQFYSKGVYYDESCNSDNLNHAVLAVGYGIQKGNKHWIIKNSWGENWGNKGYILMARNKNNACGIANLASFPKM
Description: as §3

Human Cathepsin S = biological target: T7, Human Cathepsin S (Homo sapiens, UniProt P25774); assay: Cathepsin continuous fluorescence inhibition assay; type: biochemical; settings: Column F; enzyme 6 nM, substrate 1 uM, pH 4.5, 30 minutes pre-incubation with inhibitor
T7 construct: purchased
T7 sequence (P25774 115-331): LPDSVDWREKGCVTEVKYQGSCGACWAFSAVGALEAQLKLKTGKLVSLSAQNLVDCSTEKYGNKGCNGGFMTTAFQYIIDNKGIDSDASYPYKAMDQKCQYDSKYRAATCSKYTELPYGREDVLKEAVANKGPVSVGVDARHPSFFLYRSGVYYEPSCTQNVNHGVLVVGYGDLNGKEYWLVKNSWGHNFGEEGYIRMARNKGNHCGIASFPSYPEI
Description: as §3

SMILES | ring closure, yield of all isomers [1] [%] | pIC50 (Human Calpain 2/NS1) | pIC50 (Human Calpain 1/NS1) | pIC50 (Human Calpain 9/NS1) | pIC50 (Human Cathepsin B) | pIC50 (Human Cathepsin L) | pIC50 (Human Cathepsin K) | pIC50 (Human Cathepsin S)
CC(C)[C@@H]1NC(=O)CC(Sc2ccccc2)[C@@H](NC(=O)OC(C)(C)C)COC(=O)[C@H](Cc2ccc(O[Si](C)(C)C(C)(C)C)cc2)NC1=O (some centres unmarked) | 39.4 |  |  |  |  |  |  | 
CC(C)[C@@H]1NC(=O)/C=C/[C@@H](NC(=O)OC(C)(C)C)COC(=O)[C@H](C)NC1=O [Compound 15, tert-butyl ((3S,6S,11R,E)-6-isopropyl-3-methyl-2,5,8-trioxo-1-oxa-4,7-diazacyclododec-9-en-11-yl)carbamate] |  | < 5.00 | < 5.00 | < 5.00 | 5.00 to 5.52 | > 5.52 | > 5.52 | > 5.52
CCCCCC/C=C\CC(=O)N[C@@H](Cc1ccc(O)cc1)C(=O)N[C@H](C(=O)N[C@@H]1/C=C/C(=O)N[C@@H](C(C)C)C(=O)N[C@@H](C)C(=O)OC1)C(C)C [Compound 16, (Z)—N—((S)-3-(4-hydroxyphenyl)-1-(((S)-1-(((3S,6S,11R,E)-6-isopropyl-3-methyl-2,5,8-trioxo-1-oxa-4,7-diazacyclododec-9-en-11-yl)amino)-3-methyl-1-oxobutan-2-yl)amino)-1-oxopropan-2-yl)dec-3-enamide] |  | > 5.52 | > 5.52 | < 5.00 | > 5.52 | > 5.52 | > 5.52 | > 5.52
CC(C)[C@@H]1NC(=O)/C=C/[C@@H](NC(=O)[C@@H](NC(=O)[C@H](Cc2ccc(O)cc2)NC(=O)OC(C)(C)C)C(C)C)COC(=O)[C@H](C)NC1=O [Compound 17, Tert-butyl ((S)-3-(4-hydroxyphenyl)-1-(((S)-1-(((3S,6S,11R,E)-6-isopropyl-3-methyl-2,5,8-trioxo-1-oxa-4,7-diazacyclododec-9-en-11-yl)amino)-3-methyl-1-oxobutan-2-yl)amino)-1-oxopropan-2-yl)carbamate] |  | > 5.52 | > 5.52 | < 5.00 | > 5.52 | > 5.52 | > 5.52 | > 5.52
CCCCCC/C=C\CC(=O)N[C@@H](Cc1ccc(O)cc1)C(=O)N[C@H](C(=O)N[C@@H]1/C=C/C(=O)N[C@@H](C(C)C)C(=O)N[C@@H](Cc2ccc(O)cc2)C(=O)OC1)C(C)C [Compound 18, (Z)—N—((S)-1-(((S)-1-(((3S,6S,11R,E)-3-(4-hydroxybenzyl)-6-isopropyl-2,5,8-trioxo-1-oxa-4,7-diazacyclododec-9-en-11-yl)amino)-3-methyl-1-oxobutan-2-yl)amino)-3-(4-hydroxyphenyl)-1-oxopropan-2-yl)dec-3-enamide] |  | > 5.52 | > 5.52 | < 5.00 | > 5.52 | > 5.52 | > 5.52 | > 5.52

Source: patent US20210253642A1, “CALPAIN MODULATORS AND THERAPEUTIC USES THEREOF BACKGROUND” (Blade Therapeutics, Inc., priority 2018, published 2021)
